Earlier results as cited in patent US6461634B1, “Food-based delivery of HGH-stimulating and other nutritional supplements” (priority 1999, dated 2002).

System: HGH
Details: 5 mg melatonin taken orally one hour prior to vigorous exercise, versus vigorous exercise alone; healthy adult male subjects

COc1ccc2[nH]cc(CCNC(C)=O)c2c1 [melatonin]
increase in HGH resulting from vigorous exercise: triple
